Where only a bound is given, the exact number is not on record here.

Common to all, as to assay type: functional, cell-based
One assay concerns HT-29. The experiment in a line: Cytotoxicity against human HT29 cells by MTT assay.
The subject of a further assay is HepG2. The experiment in a line: Cytotoxicity against human HEPG2 cells by MTT assay.
The subject of another assay is MCF7. The experiment in a line: Cytotoxicity against human MCF7 cells by MTT assay.

For `CC(Cc1cc2c(cc1O)OCO2)[C@@H](C)[C@H](O)c1ccc2c(c1)OCO2` (single isomer, unassigned) [SAUCERNEOL H], the half-maximal inhibitory concentration (IC50) amounted to 53 µM in the assay with HT-29, 61 µM with HepG2 and 72 µM with MCF7.

In the case of `CC[C@@]1(O)C(=O)OCc2c1cc1n(c2=O)Cc2cc3ccccc3nc2-1` [CAMPTOTHECIN], the IC50 in the assay on HT-29 was 2 µM; in the assay on HepG2, 0.3 µM; with MCF7, 10 µM.

In the case of `COc1ccc([C@H](O)[C@@H](C)Oc2ccc([C@H]3O[C@H](c4ccc5c(c4)OCO5)[C@H](C)[C@H]3C)cc2OC)cc1OC` [SAUCERNEOL D], the IC50 was 13 µM with HT-29, 16 µM in the assay on HepG2 and above 100 µM in the assay with MCF7.

On to `COc1cc([C@H]2O[C@H](c3ccc4c(c3)OCO4)[C@H](C)[C@H]2C)ccc1O[C@H](C)[C@@H](O)c1ccc2c(c1)OCO2` [SAUCERNEOL F], for which the values for the IC50 in the assay with HT-29, in the assay on HepG2 and in the assay on MCF7 were 10 µM, 11 µM and above 100 µM, respectively.

Take `CC(Cc1cc2c(cc1O)OCO2)C(C)C(=O)c1ccc2c(c1)OCO2` (stereo not drawn) [SAUCERNEOL G]: the IC50 came out at 55 µM in the assay with HT-29, 62 µM in the assay on HepG2 and 64 µM in the assay with MCF7.

Regarding `C[C@@H]([C@H](C)[C@H](O)c1ccc2c(c1)OCO2)[C@H](O)c1ccc2c(c1)OCO2` [SAUCERNEOL I], the IC50 in the assay with HT-29 is 21 µM; in the assay with HepG2, above 100 µM; in the assay on MCF7 it was above 100 µM.

These data come from ChEMBL document CHEMBL1140189, “Lignans from the roots of Saururus chinensis” (J Nat Prod, 2008).
